Results from US8207361B2, “Tigecycline crystalline forms and processes for preparation thereof” (Teva Pharmaceutical Industries Ltd., priority 2006, dated 2012).

Assay: Exposure of crystalline form to about 100% room humidity, crystal form monitored by XRD
Type: physicochemical
Settings: after exposure to about 100% RH for about 7 days at about room temperature, Form I prepared from ethyl acetate (about 80 mg)
From the text: A round aluminum sample holder with zero background was used.

CN(C)c1cc(NC(=O)CNC(C)(C)C)c(O)c2c1C[C@H]1C[C@H]3[C@H](N(C)C)C(O)=C(C(N)=O)C(=O)[C@@]3(O)C(O)=C1C2=O [Form I, (4S,4aS,5aR,12aS)-9-(2-(tert-butylamino)acetamido)-4,7-bis(dimethylamino)-1,4,4a,5,5a,6,11,12a-octahydro-3,10,12,12a-tetrahydroxy-1,11-dioxo-2-naphthacenecarboxamide]
Crystal form: Amorphous
